Test results taken from US12172960B2, “Organic compound salts” (priority 2022, dated 2024).
≈ marks a conversion by molar mass, not a printed value. Where “and” joins values, the source holds several entries; their conditions need not be identical. Identical values can stand only once.

Key:
Assay type in all cases: physicochemical
[1] = Flow properties (bulk density, tapped density); conditions: for Hausner Factor: Tapped density/Bulk density; for Carr's Index: calculated from tapped and bulk density
Method: The bulk density and the tapped density of an HBr salt sample as obtained according to the above method was determined applying standard methods. • Bulk density: 0.19 g/cm^3 • Tapped density: 0.25 g/cm^3 • From this, the Carr's Index characterizing flow properties can be calculated ([…]). The index is 24%.

[2] = Solubility and pH in water for injection (24 hours equilibration, 25° C.); conditions: for pH value of the suspension/solution after 24 hours: in water for injection, determined at 25° C.; for solubility at 24 h: water for injection, 24 hours of equilibration, 25° C.
Method: 5-MeO-DMT freebase and 5-MeO-DMT hydrobromide (30 mg) were weighed out into crystallisation tubes, water for injection (WFI; 150 μL, 5 vols) was charged and samples were left to equilibrate (25° C.) over 24 hours.
The free base led to a suspension. An additional 850 μl of water was added. The mixture was still a suspension. […] The pH value of the suspension after 24 hours was 9.93, determined at 25° C.
In the case of 5-MeO-DMT HBr, a solution was obtained. […] The pH value of the solution after 24 hours was 6.84, determined at 25° C.

[3] = Dynamic vapor sorption (DVS) analysis; conditions: for further increase between 60% RH and 90% RH / water gain up to 60% RH / total water absorption over the humidity range: first sorption cycle, hydrobromide; for further increase between 60% RH and 90% RH: 60% RH to 90% RH; for total water absorption over the humidity range: up to 90% RH
Source text: Dynamic vapor sorption (DVS) data was collected for both 5-MeO DMT HBr Pattern A and Pattern B. The DSV data are shown in FIG. 10 (Pattern A) und FIG. 11 (Pattern B). DVS profiles are almost identical.

[4] = Particle size distribution by laser light scattering; conditions: sample weight 800 mg; listed as HBr salt, hydrobromide
Method: The particle size distribution of a sample obtained as in the above example was determined using a laser light scattering method.

Structure (SMILES) | Bulk density [1] [g/mL] | Tapped density [1] [g/mL] | Hausner Factor [1] | Carr's Index [1] [%] | pH value of the suspension/solution after 24 hours [2] | solubility at 24 h ([2]; pH 9.93, thermodynamic from solid) [µg/mL] | modification of form following equilibration at extremes of relative humidity [3] | further increase between 60% RH and 90% RH [3] [wt %] | water gain up to 60% RH [3] [%] | total water absorption over the humidity range [3] [wt %] | Dv10 [4] | Dv90 [4] | solubility at 24 h ([2]; pH 6.84, thermodynamic from solid) [µg/mL]
COc1ccc2[nH]cc(CCN(C)C)c2c1 [free base, 5-Methoxy-N,N-dimethyltryptamine, reference compound] | 0.32 | 0.54 | 1.68 | 41 | 9.93 | 3290 (≈ 15.1 mM) | – | – | – | – | – | – | –
Br.COc1ccc2[nH]cc(CCN(C)C)c2c1 [5-MeO-DMT HBr Pattern A, 5-methoxy-N,N-dimethyltryptamine hydrobromide] | – | – | – | – | – | – | Neither form showed any modification | 1.56 | 0.13 | 1.7 | – | – | –
Br.COc1ccc2[nH]cc(CCN(C)C)c2c1 [5-MeO-DMT HBr, 5-methoxy-N,N-dimethyltryptamine hydrobromide] | 0.19 | 0.25 | 1.31 | 24 | 6.84 | – | – | – | – | – | 57.8 μm and 60.8 μm and 65.1 μm | 613 μm and 630 μm and 643 μm | > 200000
Br.COc1ccc2[nH]cc(CCN(C)C)c2c1 [5-MeO-DMT HBr Pattern B, 5-methoxy-N,N-dimethyltryptamine hydrobromide] | – | – | – | – | – | – | Neither form showed any modification | 1.57 | 0.14 | 1.71 | – | – | –
